Series [1] addresses T1, Axl (Homo sapiens, UniProt P30530).
T1 construct: endogenous in cells; host or cells: HeLa cells
T1 sequence (P30530 26-894): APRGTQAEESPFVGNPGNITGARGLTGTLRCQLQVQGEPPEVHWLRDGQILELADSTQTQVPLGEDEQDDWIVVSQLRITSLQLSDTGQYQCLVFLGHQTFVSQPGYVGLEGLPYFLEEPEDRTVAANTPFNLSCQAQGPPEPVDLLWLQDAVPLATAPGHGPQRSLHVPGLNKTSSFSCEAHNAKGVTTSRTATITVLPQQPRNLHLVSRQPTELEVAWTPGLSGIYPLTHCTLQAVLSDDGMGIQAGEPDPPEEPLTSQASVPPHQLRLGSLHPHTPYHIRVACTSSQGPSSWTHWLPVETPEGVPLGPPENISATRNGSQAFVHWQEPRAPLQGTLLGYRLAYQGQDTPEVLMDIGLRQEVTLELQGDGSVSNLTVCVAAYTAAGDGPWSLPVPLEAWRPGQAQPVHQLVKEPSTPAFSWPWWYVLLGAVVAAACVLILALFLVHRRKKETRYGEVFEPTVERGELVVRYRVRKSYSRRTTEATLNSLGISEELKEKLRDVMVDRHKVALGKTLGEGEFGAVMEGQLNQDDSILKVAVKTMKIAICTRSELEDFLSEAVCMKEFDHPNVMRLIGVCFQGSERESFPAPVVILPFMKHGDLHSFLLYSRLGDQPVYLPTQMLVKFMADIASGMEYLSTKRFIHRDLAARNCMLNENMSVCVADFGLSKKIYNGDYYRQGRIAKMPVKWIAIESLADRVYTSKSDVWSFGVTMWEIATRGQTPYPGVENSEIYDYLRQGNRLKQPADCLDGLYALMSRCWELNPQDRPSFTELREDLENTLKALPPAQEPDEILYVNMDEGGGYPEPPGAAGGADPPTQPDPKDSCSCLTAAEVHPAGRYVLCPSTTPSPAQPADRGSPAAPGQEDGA
Nature of the series: Phospho-Akt in-cell Western assay (inhibition of Axl activity). Format: cell-based. The conditions noted are these: Hela cells, Axl antibody cross-linking stimulation, phospho-Akt chemiluminescence. Summed up:
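HeLa cells on poly-L-lysine, starved 24 h in 0.5% FCS DMEM with Axl/Fc 500 ng/mL, pre-treated with compound 1 h at 37° C. Axl stimulated 5 min by anti-Axl/anti-mouse antibody cross-linking. Fixed cells probed with anti-phospho-Akt and HRP secondary, chemiluminescence read.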

The term IC50 denotes the point on the concentration scale where inhibition reaches its midpoint. Low values mean greater potency in that assay, high ones weaker potency in that assay. In general, melting point refers to the temperature, or range, at which the solid turns liquid.

Take `C=CCN(C)Cc1cc2cc(Nc3nc(N)n(C(=O)c4cccc(C)c4)n3)ccc2o1` [(Ia-28), 5-amino-3-(2-((allyl(methyl)amino)methyl)benzofuran-5-yl)amino-1-(3-methylphenyl)carbonyl-1H-1,2,4-triazole]: the melting point was 128 to 131 °C. Moreover, the half-maximal inhibitory concentration (IC50) in series [1] (Table 5) is 1 to 10 µM.
On the same counts, the results for `CNCc1cc2cc(Nc3nc(N)n(C(=O)c4cccc(C)c4)n3)ccc2o1` [(Ia-29), 5-amino-3-(2-((methylamino)methyl)benzofuran-5-yl)amino-1-(3-methylphenyl)carbonyl-1H-1,2,4-triazole] are 128 to 131 °C and below 1 µM.
Take `Nc1nc(Nc2ccccc2)n(C(=O)/C=C/c2ccco2)n1` [compound 140, 3-amino-5-phenylamino-1-(trans-2-(furan-2-yl)ethenyl)carbonyl-1H-1,2,4-triazole]: the melting point lay within 190 to 193 °C. In addition, in series [1] (Table 4), the IC50 was above 20 µM.
`Nc1nc(Nc2ccccc2)nn1C(=O)/C=C/c1ccco1` [compound 141, 5-amino-3-phenylamino-1-(trans-2-(furan-2-yl)ethenyl)carbonyl-1H-1,2,4-triazole] came in with a melting point of 212 to 216 °C. This compound also came in with an IC50 in series [1] (Table 3) of 1 to 10 µM.

The values are drawn from patent US8389557B2, “Triazole derivatives useful as Axl inhibitors” (Rigel Pharmaceuticals, Inc., priority 2005, dated 2013).
